According to patent publication US8835427B2, “Fungicidal heterocyclic compounds” (priority 2010, dated 2014):
Marks after values point to notes of the source that are not given here.

How the values were obtained:
Format in all cases: in vivo
[1] = test system: Phytophthora infestans; details: 40 ppm test suspension (asterisk); tomato seedlings sprayed the day before inoculation with Phytophthora infestans; rating 100 = 100% disease control, 0 = no control relative to the controls
[2] = test system: Plasmopara viticola; test: Test A: grape downy mildew, grape seedlings sprayed after inoculation, visual disease rating; details: 40 ppm test suspension (asterisk); grape seedlings sprayed 24 h after inoculation with Plasmopara viticola; rating 100 = 100% disease control, 0 = no control relative to the controls
[3] = test system: Phytophthora infestans; details: 40 ppm test suspension (asterisk); tomato seedlings sprayed 17 h after inoculation with Phytophthora infestans; rating 100 = 100% disease control, 0 = no control relative to the controls

SMILES: CC(=O)N1CC(c2nc(C3=NOC(c4c(F)cccc4F)C3)cs2)CCN1C(=O)Cn1nc(C(F)(F)F)cc1C (stereo not drawn) [Compound 2, 1-[2-Acetyl-4-[4-[5-(2,6-difluorophenyl)-4,5-dihydro-3-isoxazolyl]-2-thiazolyl]tetrahydro-1(2H)-pyridazinyl]-2-[5-methyl-3-(trifluoromethyl)-1H-pyrazol-1-yl]ethanone]
- Test B rating (disease control, tomato late blight) [1]: 100* %
- Test A rating (disease control, grape downy mildew) [2]: 89* %
- Test C rating (disease control, tomato late blight) [3]: 98* %

SMILES: Cc1cc(C(F)(F)F)nn1CC(=O)N1CCC(c2nc(C3=NOC(c4c(F)cccc4F)C3)cs2)CO1 (stereo not drawn) [Compound 3]
- Test B rating (disease control, tomato late blight) [1]: 100* %
- Test A rating (disease control, grape downy mildew) [2]: 100* %
- Test C rating (disease control, tomato late blight) [3]: 99* %

SMILES: Cc1cc(C(F)(F)F)nn1CC(=O)N1CC2CN(c3nc(C4=NOC(c5c(F)cccc5F)C4)cs3)CC2C1 (stereo not drawn) [Compound 4, 1-[5-[4-[5-(2,6-difluorophenyl)-4,5-dihydro-3-isoxazolyl]-2-thiazolyl]hexahydropyrrolol[3,4-c]pyrrol-2(1H)-yl]-2-[5-methyl-3-(trifluoromethyl)-1H-pyrazol-1-yl]ethanone]
- Test B rating (disease control, tomato late blight) [1]: 100* %
- Test A rating (disease control, grape downy mildew) [2]: 99* %
- Test C rating (disease control, tomato late blight) [3]: 99* %

SMILES: Cc1cc(C(F)(F)F)nn1CC(=O)N1CCC(c2nc(C3=NOC(c4c(F)cccc4F)C3)cs2)CN1 (stereo not drawn) [Compound 1, 1-[4-[4-[5-(2,6-difluorophenyl)-4,5-dihydro-3-isoxazolyl]-2-thiazolyl]tetrahydro-1(2H)-pyridazinyl]-2-[5-methyl-3-(trifluoromethyl)-1H-pyrazol-1-yl]ethanone]
- Test B rating (disease control, tomato late blight) [1]: 100* %
- Test A rating (disease control, grape downy mildew) [2]: 99* %
- Test C rating (disease control, tomato late blight) [3]: 99* %
